pIC50: −log10 of the molar value. “Also recorded” adds a separate entry of the source.
Experiments:
human NEP = target: T1, human NEP (Homo sapiens, UniProt P08473); experiment: Neutral endopeptidase (NEP) selectivity assay; assay type: biochemical; conditions: means of two experiments minimum, s.d.±10%; read-out: Selectivity IC50 hNEP
T1 construct: purchased R&D Systems
Experimental: (§1) Briefly, human NEP (R&D Systems; 200 ng ml^−1) was incubated 10 min at room temperature with compound in Hepes 50 mM, NaCl 100 mM, pH 7.4 and the enzymatic reaction started by adding the substrate (final concentration 200 μM). […] Briefly, human ACE (R&D Systems) was incubated 10 min at room temperature with compound in Tris 50 mM 1% NaCl pH 7.4 and the enzymatic reaction is started by adding the substrate (final concentration 300 μM). […] In vitro activity was assayed at CEREP.SA as follows.

[1] = Stability in mouse plasma; assay type: in vitro ADME; conditions: 37 °C, read-out: Plasma stability m (t1/2)
Experimental: (§2) Incubations were performed in duplicate in Eppendorf tubes. The plasma (mouse plasma, rat plasma (mixed gender), human (mixed gender, all lithium heparine, from Sera Laboratories International) or cell culture medium (differenciation medium: DMEM (Life Technologies, Ref 41965), 0.4 % gentamicine, 10 % FCS (Lonza, Ref DE14-801F) or proliferation medium: DMEM (Life Technologies, Ref 41965), 0.4 % gentamicine, 2 % horse serum (Gbco, Ref16050) was pre-incubated 5 min at 37 °C before the addition of test compounds to a final concentration of 10 μM (1% DMSO maximum). At the defined time points, 50 μl from each tube were removed to another tube containing 450 μl of cold CH3CN+ internal standard (1 μM). After centrifugation (10 min at 10,000 r.p.m.), supernatants are analysed. The degradation half-life (t1/2) values were calculated as t1/2=0.693/k where k is the first-order degradation rate constant. The degradation rate constant (k) was estimated by one-phase exponential decay nonlinear regression analysis of the degradation time course data using Xlfit software (version 2.1.2 or higher) from IDBS.Ltd.

[2] = tested on: insulin receptor, Akt and ERK phosphorylation; experiment: Insulin signalling by western blotting in liver and muscle; assay type: in vivo, mouse; conditions: 50 mg kg^−1 ip, after insulin injection
Experimental: Liver and muscle were homogenized in a lysis buffer (1% triton, 0.5 % deoxycholate, 10 mM Na pyruvate, 2 mM Na Vanadate, 100 mM NaF) supplemented with the proteases inhibiteurs cocktails) and the resulting homogenate clarified by centrifugation. Proteins expression and phosphorylation were evaluated by western blot analysis. The signals were detected with a Pierce ECL western blotting substrate (Thermo scientific), according the manufacturer instructions. Primary antibodies were diluted at 1/1,000 and incubated overnight in PBS 0.1% Tween 20, 5% milk.

Microsomal stability = assay type: in vitro ADME; conditions: male, CD-1, pH 7.4, mouse liver microsomes, read-out: Microsomal stability m (t1/2)
Experimental: Male mouse (CD-1) liver microsomes (BD Gentest) were used. All incubations were performed in duplicate in a shaking water bath at 37 °C. The incubation mixtures contained 1 μM compound with 1% methanol used as a vehicle, mouse liver microsomes (0.6 mg of microsomal protein per mL), 5 mM MgCl2, 1 mM NADP, 5 mM glucose 6-phosphate, 0.4 U ml^−1 glucose 6-phosphate dehydrogenase, and 50 mM potassium phosphate buffer (pH 7.4) in a final volume of 1.5 ml. Samples were taken at 5, 10, 20, 30 and 40 min after microsome addition, and reactions stopped by adding ice-cold acetonitrile containing 1 μM internal standard (four volumes). Centrifugation of the samples for 10 min at 10,000g and 4 °C allowed to pellet precipitated microsomal proteins, and supernatant was subjected LC−MS/MS analysis, in acetonitrile containing 1 μM internal standard. Each compound was quantified by converting the corresponding analyte/internal standard peak area ratios to percentage drug remaining, using the initial ratio values in control incubations as 100%. Propranolol, known as a high hepatic clearance drug in rodents, was used as a quality-control compound for the microsomal incubations. […] The slope of the linear regression from log percentage remaining versus incubation time relationships (-k) was used in the conversion to in vitro t1/2 values by: t1/2=−0.693/k.

isolated mouse islets = conditions: 3 or 10 µM
Experimental: Digestion was stopped by addition of cold HBSS with 10% FCS. The islets were washed twice in HBSS with FCS and once in RPMI with FCS. […] The next day, the islets were incubated in fresh DMEM with 10% FCS without glucose for 90 min. Then glucose at 2.8 mM together with BDM44378 was added; after 1 h, the supernatant was removed and replaced by fresh medium with 28 mM glucose, followed by another 1-h incubation in the presence or absence of inhibitor.

[3] = Stability in human plasma; assay type: in vitro ADME; conditions: both sexes, read-out: Plasma stability h (t1/2)
Experimental: as §2

C57BL/6J mice = experiment: Insulin tolerance test (ITT); assay type: in vivo, mouse; conditions: 50 mg kg^−1 ip
Experimental: AUC for ITT were calculated to evaluate insulin sensitivity. Blood glucose levels were determined using an Accu-Check glucometer (Roche Diagnostics). […] The protocol was approved by the ethical comitee CEEA Nord Pas de Calais (CEEA75).

Recombinant human MMP-1 = target: T2, Recombinant human MMP-1 (Homo sapiens, UniProt P03956); experiment: Matrix metalloprotease 1 inhibition (CEREP); assay type: biochemical; conditions: means of two experiments minimum, s.d.±10%; read-out: Selectivity IC50 hMMP-1
T2 construct: host or cells: E. coli
T2 sequence (P03956 100-469): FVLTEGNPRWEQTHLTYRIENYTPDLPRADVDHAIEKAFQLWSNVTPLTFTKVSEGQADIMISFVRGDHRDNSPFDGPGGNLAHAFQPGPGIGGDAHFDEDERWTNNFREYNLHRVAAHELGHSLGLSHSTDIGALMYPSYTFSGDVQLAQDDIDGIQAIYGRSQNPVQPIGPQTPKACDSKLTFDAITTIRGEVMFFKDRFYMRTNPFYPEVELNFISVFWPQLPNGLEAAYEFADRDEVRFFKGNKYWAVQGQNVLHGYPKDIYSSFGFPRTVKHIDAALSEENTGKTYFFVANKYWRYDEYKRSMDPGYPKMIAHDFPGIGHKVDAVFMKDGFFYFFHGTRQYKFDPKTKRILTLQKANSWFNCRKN
Experimental: as §1

T1 sequence (P08473 whole entry): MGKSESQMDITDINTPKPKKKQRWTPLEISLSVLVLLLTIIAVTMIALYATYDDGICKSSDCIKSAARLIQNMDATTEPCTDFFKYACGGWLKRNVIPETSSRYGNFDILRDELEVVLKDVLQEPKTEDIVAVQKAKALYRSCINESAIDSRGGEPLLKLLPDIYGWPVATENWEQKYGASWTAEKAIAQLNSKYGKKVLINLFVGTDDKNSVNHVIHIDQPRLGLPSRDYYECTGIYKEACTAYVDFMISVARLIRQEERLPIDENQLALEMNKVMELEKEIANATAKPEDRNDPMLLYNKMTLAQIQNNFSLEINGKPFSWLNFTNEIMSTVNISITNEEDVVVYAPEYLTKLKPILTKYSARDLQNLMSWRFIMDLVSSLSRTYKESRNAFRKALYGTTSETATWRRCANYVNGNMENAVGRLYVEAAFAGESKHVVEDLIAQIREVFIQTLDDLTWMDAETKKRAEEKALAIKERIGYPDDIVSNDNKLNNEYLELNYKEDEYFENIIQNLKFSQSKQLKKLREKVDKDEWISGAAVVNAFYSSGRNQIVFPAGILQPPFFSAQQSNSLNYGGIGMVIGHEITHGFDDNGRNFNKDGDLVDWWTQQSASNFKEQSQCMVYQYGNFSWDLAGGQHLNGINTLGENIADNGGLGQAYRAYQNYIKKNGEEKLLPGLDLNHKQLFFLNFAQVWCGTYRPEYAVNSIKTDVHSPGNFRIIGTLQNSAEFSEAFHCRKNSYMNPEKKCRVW

**Q.** With `O=C(C[C@@H](Cc1ccc2ccccc2c1)n1cc(CNC(=O)c2ccc(F)cc2)nn1)NO` [Compound 1] as the molecule, how does the pIC50 (human NEP) read?
**A.** 5.59

**Q.** And the half-life at 10 μM [1]?
**A.** 24 h

**Q.** And the “insulin signalling: phosphorylation of insulin receptor, Akt and ERK in liver and muscle” value [2]?
**A.** Increase insulin signaling; also recorded: increased the phosphorylation

**Q.** And the half-life at 1 μM (Microsomal stability)?
**A.** 0.333 h

**Q.** What about the “insulin in the supernatant of islets, Ide−/−” value (isolated mouse islets; islets from Ide−/− mice) of the same molecule?
**A.** did not respond

**Q.** And the “insulin detectable in the supernatant of islets, wild-type” value (isolated mouse islets; islets from wild-type C57BL/6J mice, 2.8 and 28 mM glucose)?
**A.** increased, in a dose-dependent manner

**Q.** What about the half-life at 10 μM [3] of the same molecule?
**A.** > 24 h

**Q.** And the “serum insulin concentrations during ITT” value (C57BL/6J mice; 0.75 U kg^−1 insulin, significant at 30 min)?
**A.** slightly increased

**Q.** What about the “glucose lowering effect of insulin during ITT” value (C57BL/6J mice; 30 and 60 min) of the same molecule?
**A.** Augments insulin action in vivo; also recorded: tended to enhance

**Q.** And the pIC50 (Recombinant human MMP-1)?
**A.** 5.00
